Laboratory results taken from article PMC6364417, “Kinase inhibitor library screening identifies synergistic drug combinations effective in sensitive and resistant melanoma cells” (Journal of Experimental & Clinical Cancer Research : CR, 2019).

Columns and labels:
Test in all cases: Kinase inhibitor library screening, PrestoBlue cell viability, 1 or 10 μM, 72 h
[1] = test system: 501Mel-XP cells (Vemurafenib-resistant); settings: 501Mel XP, 72 h
[2] = test system: A375 cells (parental); settings: A375 Parental, 72 h; for cell viability, A375 Parental, 1μΜ / cell viability, A375 Parental, 10μΜ: in %
[3] = test system: IGR37-GP cells (Dabrafenib-resistant); settings: IGR37 GP, 72 h
[4] = test system: 501Mel-GP cells (Dabrafenib-resistant); settings: 501Mel GP, 72 h
[5] = test system: 501Mel cells (parental); settings: 501Mel Parental, 72 h
In short: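 Readout: PrestoBlue signal on a monochromator plate reader, given as percent viability relative to untreated controls. Parental and drug-resistant (Vemurafenib XP, Dabrafenib GP) sublines were tested; at least duplicates per line.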

[6] = test system: A375-XP cells (Vemurafenib-resistant); settings: A375 XP, 72 h; for cell viability, A375 XP, 1μΜ / cell viability, A375 XP, 10μΜ: in %
[7] = test system: A375-GP cells (Dabrafenib-resistant); settings: A375 GP, 72 h
[8] = test system: IGR37 cells (parental); settings: IGR37 Parental, 72 h
[9] = test system: IGR37-XP cells (Vemurafenib-resistant); settings: IGR37 XP, 72 h; for cell viability, IGR37 XP, 1μΜ: in %

With `CC(C)(C)c1cc(/C=C(\C#N)C(N)=S)cc(C(C)(C)C)c1O` [Tyrphostin AG 879 (AG 879)] the “cell viability, 501Mel XP, 1μΜ” value ([1]; 1μΜ, in %) was 98.6, the “cell viability, 501Mel XP, 10μΜ” value ([1]; 10μΜ, in %) was 18.3 and the “cell viability, A375 Parental, 1μΜ” value ([2]; 1μΜ) was 103.1. The “cell viability, A375 Parental, 10μΜ” value ([2]; 10μΜ) was 21.0, the cell viability, IGR37 GP, 10μΜ ([3]; 10μΜ) was 60.1% and the “cell viability, 501Mel GP, 1μΜ” value ([4]; 1μΜ, in %) was 110.4. The “cell viability, 501Mel GP, 10μΜ” value ([4]; 10μΜ, in %) was 23.6, the “cell viability, 501Mel Parental, 1μΜ” value ([5]; 1μΜ, in %) was 115.0 and the “cell viability, 501Mel Parental, 10μΜ” value ([5]; 10μΜ, in %) was 44.8. For the same molecule, the “cell viability, A375 XP, 1μΜ” value ([6]; 1μΜ) was 105.8, the “cell viability, A375 XP, 10μΜ” value ([6]; 10μΜ) was 24.1 and the “cell viability, A375 GP, 10μΜ” value ([7]; 10μΜ, in %) was 19.7. The “cell viability, IGR37 Parental, 10μΜ” value ([8]; 10μΜ, in %) was 83.4, the cell viability, IGR37 XP, 10μΜ ([9]; 10μΜ) was 21.5% and the “cell viability, IGR37 XP, 1μΜ” value [9] was 90.9.

In the case of `CCO.N#CC(=C(/N)Sc1ccccc1N)/C(C#N)=C(\N)Sc1ccccc1N` [U0126-EtOH], the “cell viability, 501Mel XP, 1μΜ” value ([1]; 1μΜ, in %) is reported as 86.9, the “cell viability, 501Mel XP, 10μΜ” value ([1]; 10μΜ, in %) is reported as 62.2 and the “cell viability, A375 Parental, 1μΜ” value ([2]; 1μΜ) is reported as 100.1. For the same molecule, the “cell viability, A375 Parental, 10μΜ” value ([2]; 10μΜ) was 39.4, the cell viability, IGR37 GP, 10μΜ ([3]; 10μΜ) was 83.5% and the “cell viability, IGR37 GP, 1μΜ” value ([3]; 1μΜ, in %) was 93.8. For the same molecule, the “cell viability, 501Mel GP, 1μΜ” value ([4]; 1μΜ, in %) was 105.2, the “cell viability, 501Mel GP, 10μΜ” value ([4]; 10μΜ, in %) was 75.1 and the “cell viability, 501Mel Parental, 1μΜ” value ([5]; 1μΜ, in %) was 94.5. For the same molecule, the “cell viability, 501Mel Parental, 10μΜ” value ([5]; 10μΜ, in %) was 65.9, the “cell viability, A375 XP, 1μΜ” value ([6]; 1μΜ) was 94.5 and the “cell viability, A375 XP, 10μΜ” value ([6]; 10μΜ) was 60.2. For the same molecule, the “cell viability, A375 GP, 1μΜ” value ([7]; 1μΜ, in %) was 93.9, the “cell viability, A375 GP, 10μΜ” value ([7]; 10μΜ, in %) was 64.5 and the “cell viability, IGR37 Parental, 10μΜ” value ([8]; 10μΜ, in %) was 35.1. For the same molecule, the cell viability, IGR37 XP, 10μΜ ([9]; 10μΜ) was 45.1% and the “cell viability, IGR37 XP, 1μΜ” value [9] was 92.3.

In the case of `Cc1cc(Nc2cc(N3CCN(C)CC3)nc(Sc3ccc(NC(=O)C4CC4)cc3)n2)n[nH]1` [VX-680 (MK-0457, Tozasertib)], the “cell viability (kinase inhibitor library screening)” value ([1]; 1μΜ) is reported as 74.1%, the “cell viability (kinase inhibitor library screening)” value ([1]; 10μΜ) is reported as 26.8% and the “cell viability (kinase inhibitor library screening)” value ([2]; 10μΜ) is reported as 26.3%. For the same molecule, the “cell viability (kinase inhibitor library screening)” value ([2]; 1μΜ) was 47.5%, the “cell viability (kinase inhibitor library screening)” value ([3]; 1μΜ) was 94.7% and the “cell viability (kinase inhibitor library screening)” value ([3]; 10μΜ) was 11.6%. The “cell viability (kinase inhibitor library screening)” value ([4]; 1μΜ) was 85.8%, the “cell viability (kinase inhibitor library screening)” value ([4]; 10μΜ) was 48.3% and the “cell viability (kinase inhibitor library screening)” value ([5]; 1μΜ) was 85.5%. For the same molecule, the “cell viability (kinase inhibitor library screening)” value ([5]; 10μΜ) was 48.7%, the “cell viability (kinase inhibitor library screening)” value ([6]; 1μΜ) was 56.4% and the “cell viability (kinase inhibitor library screening)” value ([6]; 10μΜ) was 35.5%. The “cell viability (kinase inhibitor library screening)” value ([7]; 1μΜ) was 45.1%, the “cell viability (kinase inhibitor library screening)” value ([7]; 10μΜ) was 30.5% and the “cell viability (kinase inhibitor library screening)” value ([8]; 1μΜ) was 89.0%. The “cell viability (kinase inhibitor library screening)” value ([8]; 10μΜ) was 63.5% and the “cell viability (kinase inhibitor library screening)” value ([9]; 10μΜ) was 3.9%.

With `NC(=O)c1ccc(N(C(N)=O)c2c(F)cccc2F)nc1-c1ccc(F)cc1F` [VX-702] the “Cell viability in kinase inhibitor library screening, 501Mel XP, 1μΜ” value ([1]; 1μΜ, in %) was 91.5, the “Cell viability in kinase inhibitor library screening, 501Mel XP, 10μΜ” value ([1]; 10μΜ, in %) was 83.4 and the “Cell viability in kinase inhibitor library screening, A375 Parental, 10μΜ” value ([2]; 10μΜ) was 90.0. For the same molecule, the “Cell viability in kinase inhibitor library screening, A375 Parental, 1μΜ” value ([2]; 1μΜ) was 102.7, the Cell viability in kinase inhibitor library screening, IGR37 GP, 10μΜ ([3]; 10μΜ) was 93.6% and the “Cell viability in kinase inhibitor library screening, IGR37 GP, 1μΜ” value ([3]; 1μΜ, in %) was 98.3. For the same molecule, the “Cell viability in kinase inhibitor library screening, 501Mel GP, 1μΜ” value ([4]; 1μΜ, in %) was 99.8, the “Cell viability in kinase inhibitor library screening, 501Mel GP, 10μΜ” value ([4]; 10μΜ, in %) was 87.7 and the “Cell viability in kinase inhibitor library screening, 501Mel Parental, 10μΜ” value ([5]; 10μΜ, in %) was 97.1. For the same molecule, the “Cell viability in kinase inhibitor library screening, A375 XP, 1μΜ” value ([6]; 1μΜ) was 104.7, the “Cell viability in kinase inhibitor library screening, A375 XP, 10μΜ” value ([6]; 10μΜ) was 104.6 and the “Cell viability in kinase inhibitor library screening, A375 GP, 10μΜ” value ([7]; 10μΜ) was 97.2. For the same molecule, the “Cell viability in kinase inhibitor library screening, IGR37 Parental, 10μΜ” value ([8]; 10μΜ, in %) was 103.3 and the Cell viability in kinase inhibitor library screening, IGR37 XP, 10μΜ ([9]; 10μΜ) was 76.8%.
